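Results reflect a 48-hour exposure of cells in 96-well plates to compound at five concentrations. TGI: total growth inhibition.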 Peptide text beside a SMILES is read from it. * marks the point of attachment. Boc = CC(C)(C)OC(=O)*
Assays:
Assay in all cases: NCI anticancer screen, dose series, 48 h
[1] = system: CCRF-CEM leukemia
[2] = system: SK-MEL-2 melanoma
[3] = system: SK-MEL-5 melanoma
[4] = system: UACC-257 melanoma
[5] = system: HS 578T breast
[6] = system: MDA-N
[7] = system: NCI/ADR-RES ovarian
[8] = system: OVCAR-3 ovarian
[9] = system: OVCAR-8 ovarian
[10] = system: T-47D breast

Row | Structure (SMILES) | TGI [1] | TGI [2] | TGI [3] | TGI [4] | TGI [5] | TGI [6] | TGI [7] | TGI [8] | TGI [9] | TGI [10]
1 | CCN(CC)c1ccc(C(=C2C=CC(=[N+](CC)CC)C=C2)c2ccccc2)cc1 | 0.0401 µM | 0.0889 µM | 0.041 µM | 0.18 µM | – | – | – | – | – | –
2 | COc1ccc([C@@]23CCC(=O)C[C@@H]2N(C)CC3)cc1OC | > 100 µM | > 100 µM | > 100 µM | > 100 µM | > 100 µM | > 100 µM | > 100 µM | > 100 µM | > 100 µM | > 100 µM
3 | Cc1cc(S(=O)(=O)NC(=NCC(=O)NN)NN)c(S)cc1Cl | > 10 µM | > 10 µM | > 10 µM | > 10 µM | > 10 µM | > 10 µM | > 10 µM | > 10 µM | > 10 µM | > 10 µM
4 | COC1(OC)N=C(N)C2(C#N)/C(=N/N(C)C)CC(C)C12C#N (stereo not given) | > 100 µM | > 100 µM | > 100 µM | > 100 µM | > 100 µM | > 100 µM | > 100 µM | – | > 100 µM | > 100 µM
5 | O=C(NCCCCl)c1c(O)c2ccccc2[nH]c1=O | > 100 µM | > 100 µM | > 100 µM | > 100 µM | > 100 µM | > 100 µM | > 100 µM | > 100 µM | > 100 µM | > 100 µM
6 | CSCCC(NC(=O)C(CC(C)C)NC(=O)CNC(=O)OC(C)(C)C)C(=O)N(C)C (stereo not drawn) (Boc-Gly-Leu-Met-NMe2; configuration not given here) | > 100 µM | > 100 µM | > 100 µM | > 100 µM | > 100 µM | > 100 µM | > 100 µM | – | > 100 µM | > 100 µM
7 | COC1=CC2(C=CC1=O)CCN=c1c(O)c3c(c(O)c12)=NC=N3 (stereo not given) | > 100 µM | > 100 µM | > 100 µM | > 100 µM | > 100 µM | > 100 µM | > 100 µM | > 100 µM | > 100 µM | > 100 µM
8 | CC(=O)Nc1ncc2c(n1)-c1ccccc1OC2 | > 100 µM | > 100 µM | > 100 µM | > 100 µM | 94.4 µM | > 100 µM | > 100 µM | > 100 µM | > 100 µM | > 100 µM
9 | COC(=O)C1(Cc2ccccc2)Cc2ccccc2C1=O (stereo not given) | > 100 µM | 65.5 µM | 44 µM | > 100 µM | > 100 µM | 94.6 µM | 72.3 µM | > 100 µM | > 100 µM | > 100 µM
10 | Cc1nn(C(=O)c2ccccc2O)c2c1C(c1ccc(O)cc1)SC(N)=N2 (stereo not given) | > 10 µM | > 10 µM | > 10 µM | > 10 µM | > 10 µM | > 10 µM | > 10 µM | > 6.89 µM | > 10 µM | 9.72 µM
11 | COc1cc(O)c2c(c1)C(O)C(O)CC1OC1C(=O)/C=C/CC(C)OC2=O (stereo not given) | 8.8 µM | 13.5 µM | 15.4 µM | 2.48 µM | 59.5 µM | 21.6 µM | 30.3 µM | 16.7 µM | 25 µM | 30.4 µM
12 | COc1ccc(-c2c(C(C)=O)c(C)n(C3OC(CO)C(O)C(O)C3O)c(=S)c2C#N)cc1 (stereo not given) | > 100 µM | – | > 100 µM | > 100 µM | > 100 µM | > 100 µM | > 100 µM | > 100 µM | > 100 µM | > 100 µM
13 | COc1ccc(S(=O)(=O)Nc2ccc(-c3csc(N4C(=O)/C(=C/C=C\c5ccccc5)N=C4c4ccccc4)n3)cc2)cc1Cl | > 100 µM | 56.3 µM | > 100 µM | > 100 µM | 85.5 µM | 80.7 µM | 73.8 µM | > 100 µM | 88.4 µM | 57.1 µM
14 | COC(=O)CNC(=O)/C=C/[C@H](O[Si](C)(C)C(C)(C)C)[C@H](/C=C/C(=O)NCC(=O)OC)O[Si](C)(C)C(C)(C)C | > 25 µM | > 25 µM | > 25 µM | > 25 µM | > 25 µM | > 25 µM | > 25 µM | > 25 µM | > 25 µM | > 25 µM
15 | O=C(O)c1ccc(Nc2cnc3ccc(C(F)(F)F)cc3n2)cc1 | 43.1 µM | 30.7 µM | 32 µM | 93.9 µM | 40 µM | 37.3 µM | > 100 µM | 98.1 µM | 41.2 µM | 17.9 µM
16 | CC(=O)OCC1OC(n2c3c(c(-c4ccco4)c(C#N)c2=S)CCCC3)C(OC(C)=O)C(OC(C)=O)C1OC(C)=O (stereo not given) | – | > 31.6 µM | > 31.6 µM | > 31.6 µM | 85.6 µM | > 31.6 µM | > 31.6 µM | > 31.6 µM | > 100 µM | > 31.6 µM
17 | c1csc(-c2ccc(-c3ccc(-c4cccs4)s3)s2)c1 | – | > 100 µM | > 100 µM | > 100 µM | > 100 µM | > 100 µM | > 100 µM | > 100 µM | > 100 µM | > 100 µM
18 | O=C1N2CCc3c([nH]c4ccccc34)C23CC2CCCC12S3 (stereo not given) | – | > 50 µM | > 50 µM | 47.5 µM | > 50 µM | > 50 µM | 43.9 µM | > 50 µM | > 50 µM | > 50 µM
19 | COC(=O)C(Cc1ccccc1)NC(=O)CCCNC(=O)OCc1ccccc1 (stereo not given) | > 100 µM | – | 46.8 µM | – | > 100 µM | > 100 µM | > 100 µM | > 100 µM | > 100 µM | > 100 µM
20 | COCCCN1C(=O)C2c3[nH]c4ccccc4c3C3CCC(C(C)(C)C)CC3C2C1=O (stereo not given) | 52.9 µM | – | 82.4 µM | 79.4 µM | 87.6 µM | > 100 µM | > 10 µM | 35.9 µM | > 100 µM | > 100 µM

— PubChem BioAssay (NCI)
